Test results from patent US20040062815A1, “Bdellosomes” (priority 2000, published 2004).

Key:
trypanosomes = test: inhibition of the growth of trypanosomes by free daunomycin; type: cell-based, Trypanosoma brucei brucei
[1] = type: physicochemical
Source text: In addition, the simplicity of the synthesis of the bdellosomes resulting from the monomolecular structure of the particle is particularly noteworthy.

In the case of `COc1cccc2c1C(=O)c1c(O)c3c(c(O)c1C2=O)C[C@@](O)(C(C)=O)C[C@@H]3O[C@H]1C[C@H](N)[C@H](O)[C@H](C)O1` [daunomycin], the “concentration in the medium causing inhibition of the growth of trypanosomes” value (trypanosomes) is reported as ≥ 10^−7 mol.

In the case of “polyvinyl(te/o-alanylpolylactide)ate[a=4000, b=100] [bdellosomes]”, the Stability [1] is reported as “high”.
